{"source": "paper PMC11879040", "about": "“Advancing systemic toxicity risk assessment: Evaluation of a NAM-based toolbox approach” (Toxicological Sciences, 2024)", "key": {"[1]": {"target": "T1, Adenosine receptor A2a, ADORA2A (h) (Homo sapiens, UniProt P29274)", "T1 construct": "purchased Eurofins Cerep (SafetyScreen44-based IPP panel)", "T1 sequence (P29274 whole entry)": "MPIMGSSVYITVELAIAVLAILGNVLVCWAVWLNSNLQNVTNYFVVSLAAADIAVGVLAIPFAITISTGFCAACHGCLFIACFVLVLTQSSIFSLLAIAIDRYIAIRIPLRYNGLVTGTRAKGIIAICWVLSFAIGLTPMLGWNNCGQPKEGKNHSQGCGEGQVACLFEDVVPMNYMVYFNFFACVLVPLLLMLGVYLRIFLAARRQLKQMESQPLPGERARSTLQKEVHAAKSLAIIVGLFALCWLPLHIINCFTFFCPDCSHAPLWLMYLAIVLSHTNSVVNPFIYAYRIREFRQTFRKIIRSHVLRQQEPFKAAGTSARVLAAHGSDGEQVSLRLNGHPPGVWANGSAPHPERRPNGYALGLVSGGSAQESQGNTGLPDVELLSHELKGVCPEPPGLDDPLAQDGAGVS", "experiment": "IPP ADORA2A binding (agonist radioligand)", "settings": "IPP screening at 100 uM; control NECA"}, "[2]": {"test_system": "Sodium channel protein type 5 subunit alpha (site 2), SCN5A (r)", "type": "binding, rat", "settings": "IPP screening at 100 uM; control veratridine"}, "[3]": {"target": "Voltage-dependent L-type Ca2+ channel (dihydropyridine site), CACNA1C (r) (Rattus norvegicus, UniProt P22002)", "sequence (P22002 whole entry)": "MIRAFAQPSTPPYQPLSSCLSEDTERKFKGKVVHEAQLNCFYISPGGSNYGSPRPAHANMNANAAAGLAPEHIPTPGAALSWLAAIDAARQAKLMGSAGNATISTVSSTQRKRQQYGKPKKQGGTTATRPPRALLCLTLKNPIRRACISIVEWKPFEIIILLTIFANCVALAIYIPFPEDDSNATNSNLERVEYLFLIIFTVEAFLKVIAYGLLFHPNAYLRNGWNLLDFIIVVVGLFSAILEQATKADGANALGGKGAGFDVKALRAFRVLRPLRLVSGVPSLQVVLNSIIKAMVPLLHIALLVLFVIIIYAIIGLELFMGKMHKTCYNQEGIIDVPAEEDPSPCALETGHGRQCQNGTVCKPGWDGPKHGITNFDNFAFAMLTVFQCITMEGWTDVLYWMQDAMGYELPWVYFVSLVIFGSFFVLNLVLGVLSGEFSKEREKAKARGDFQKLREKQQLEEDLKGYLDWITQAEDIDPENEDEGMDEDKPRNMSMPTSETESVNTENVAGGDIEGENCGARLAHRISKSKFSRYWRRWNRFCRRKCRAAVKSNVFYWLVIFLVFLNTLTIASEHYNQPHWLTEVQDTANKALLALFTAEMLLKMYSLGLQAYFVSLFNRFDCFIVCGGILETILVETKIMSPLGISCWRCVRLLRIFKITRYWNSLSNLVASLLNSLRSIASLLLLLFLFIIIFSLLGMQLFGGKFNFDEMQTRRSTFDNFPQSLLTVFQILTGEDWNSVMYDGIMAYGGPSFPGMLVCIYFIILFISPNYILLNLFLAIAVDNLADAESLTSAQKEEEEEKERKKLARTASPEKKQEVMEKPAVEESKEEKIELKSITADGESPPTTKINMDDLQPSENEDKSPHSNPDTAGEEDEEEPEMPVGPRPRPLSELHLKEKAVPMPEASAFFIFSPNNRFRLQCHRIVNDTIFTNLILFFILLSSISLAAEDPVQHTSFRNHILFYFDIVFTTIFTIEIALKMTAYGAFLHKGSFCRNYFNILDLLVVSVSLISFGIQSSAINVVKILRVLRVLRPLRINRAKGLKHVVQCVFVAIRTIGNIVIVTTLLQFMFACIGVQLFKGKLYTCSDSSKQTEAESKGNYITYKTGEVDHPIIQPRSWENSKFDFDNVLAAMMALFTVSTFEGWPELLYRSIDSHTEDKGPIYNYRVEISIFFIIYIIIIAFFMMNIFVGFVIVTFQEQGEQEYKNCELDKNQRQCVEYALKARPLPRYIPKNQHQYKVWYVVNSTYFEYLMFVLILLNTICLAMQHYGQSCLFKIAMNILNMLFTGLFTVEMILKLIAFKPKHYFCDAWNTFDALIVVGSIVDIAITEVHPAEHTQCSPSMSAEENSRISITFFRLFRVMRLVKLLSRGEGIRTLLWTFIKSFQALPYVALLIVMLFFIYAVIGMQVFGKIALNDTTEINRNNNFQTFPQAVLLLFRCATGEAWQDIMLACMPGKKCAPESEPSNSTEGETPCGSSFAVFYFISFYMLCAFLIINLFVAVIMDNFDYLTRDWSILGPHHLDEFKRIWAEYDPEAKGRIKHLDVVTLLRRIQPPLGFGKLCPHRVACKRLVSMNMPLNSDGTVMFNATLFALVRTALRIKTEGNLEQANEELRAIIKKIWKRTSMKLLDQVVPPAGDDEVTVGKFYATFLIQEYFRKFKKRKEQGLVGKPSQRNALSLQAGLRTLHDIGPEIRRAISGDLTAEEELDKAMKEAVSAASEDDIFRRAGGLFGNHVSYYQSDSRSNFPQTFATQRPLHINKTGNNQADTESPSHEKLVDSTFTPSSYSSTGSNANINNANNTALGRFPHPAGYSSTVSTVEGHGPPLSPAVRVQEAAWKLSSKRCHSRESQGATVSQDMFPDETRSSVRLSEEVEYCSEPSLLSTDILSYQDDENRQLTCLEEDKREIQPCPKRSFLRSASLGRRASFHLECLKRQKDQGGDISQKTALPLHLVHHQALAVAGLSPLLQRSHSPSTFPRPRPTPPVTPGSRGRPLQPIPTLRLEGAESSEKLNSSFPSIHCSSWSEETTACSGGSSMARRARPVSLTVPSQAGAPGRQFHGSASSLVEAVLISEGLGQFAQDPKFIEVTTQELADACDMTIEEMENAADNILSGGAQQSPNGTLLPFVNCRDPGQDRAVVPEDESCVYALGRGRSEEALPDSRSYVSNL", "type": "binding", "settings": "IPP screening at 100 uM; control nitrendipine"}, "Tubulin (r)": {"test_system": "Tubulin (r)", "experiment": "IPP Tubulin binding", "design": "species or system rat", "settings": "100 uM; ligand/control Colchicine"}, "HepaRG cells": {"test_system": "HepaRG cells", "experiment": "High-throughput transcriptomics (HTTr, TempO-Seq), HepaRG, 24 h", "type": "cell-based, human", "description": "(§1) HepG2, HepaRG, and MCF7 cells were treated with each compound for 24 h across a dose range of 7 concentrations and lysed using TempO-Seq lysis buffer (BioSpyder Technologies, proprietary kit, see [Middleton et al. 2022] for method details). Sequencing was performed using TempO-Seq (BioClavis) version 2 of the human whole transcriptome panel and analyzed as described previously in Middleton et al."}, "HepG2 cells [4]": {"test_system": "HepG2 cells", "experiment": "Cell stress panel (CSP), 24 h, 8 concentrations, BIFROST global PoD", "type": "cell-based", "settings": "HepG2; cell stress panel PoD", "description": "Compounds were tested using the previously developed cell stress panel ([Hatherell et al. 2020]) and the expanded biomarker panel outlined in Middleton et al. HepG2 cells were treated with all compounds for 24 h across 8 concentrations prior to biomarker analysis. The same plate layout and number of replicates (3 biological and 2 technical) were used as previously for each assay within the panel."}, "[5]": {"test_system": "Glutamate receptor ionotropic NMDA 1 non-selective, GRIN1 (r)", "settings": "IPP screening at 100 uM; control CGS 19755"}, "[6]": {"target": "vitamin K epoxide reductase enzyme (VKORC1)", "settings": "ref Bevans et al. 2013, cited from earlier work"}, "[7]": {"settings": "human, cited from earlier work"}, "[8]": {"settings": "human"}, "[9]": {"test_system": "Gamma-aminobutyric acid receptor subunit alpha-1 BZD site, GABRA1A (r)", "type": "binding, rat", "settings": "IPP screening at 100 uM; control diazepam"}, "MCF7 cells": {"test_system": "MCF7 cells", "experiment": "High-throughput transcriptomics (HTTr, TempO-Seq), MCF7, 24 h", "type": "cell-based, human", "settings": "MCF-7", "description": "as §1"}, "[10]": {"target": "Potassium voltage-gated channel subfamily H member 2 hERG, KCNH2 (h) (Homo sapiens, UniProt Q12809)", "sequence (Q12809 whole entry)": "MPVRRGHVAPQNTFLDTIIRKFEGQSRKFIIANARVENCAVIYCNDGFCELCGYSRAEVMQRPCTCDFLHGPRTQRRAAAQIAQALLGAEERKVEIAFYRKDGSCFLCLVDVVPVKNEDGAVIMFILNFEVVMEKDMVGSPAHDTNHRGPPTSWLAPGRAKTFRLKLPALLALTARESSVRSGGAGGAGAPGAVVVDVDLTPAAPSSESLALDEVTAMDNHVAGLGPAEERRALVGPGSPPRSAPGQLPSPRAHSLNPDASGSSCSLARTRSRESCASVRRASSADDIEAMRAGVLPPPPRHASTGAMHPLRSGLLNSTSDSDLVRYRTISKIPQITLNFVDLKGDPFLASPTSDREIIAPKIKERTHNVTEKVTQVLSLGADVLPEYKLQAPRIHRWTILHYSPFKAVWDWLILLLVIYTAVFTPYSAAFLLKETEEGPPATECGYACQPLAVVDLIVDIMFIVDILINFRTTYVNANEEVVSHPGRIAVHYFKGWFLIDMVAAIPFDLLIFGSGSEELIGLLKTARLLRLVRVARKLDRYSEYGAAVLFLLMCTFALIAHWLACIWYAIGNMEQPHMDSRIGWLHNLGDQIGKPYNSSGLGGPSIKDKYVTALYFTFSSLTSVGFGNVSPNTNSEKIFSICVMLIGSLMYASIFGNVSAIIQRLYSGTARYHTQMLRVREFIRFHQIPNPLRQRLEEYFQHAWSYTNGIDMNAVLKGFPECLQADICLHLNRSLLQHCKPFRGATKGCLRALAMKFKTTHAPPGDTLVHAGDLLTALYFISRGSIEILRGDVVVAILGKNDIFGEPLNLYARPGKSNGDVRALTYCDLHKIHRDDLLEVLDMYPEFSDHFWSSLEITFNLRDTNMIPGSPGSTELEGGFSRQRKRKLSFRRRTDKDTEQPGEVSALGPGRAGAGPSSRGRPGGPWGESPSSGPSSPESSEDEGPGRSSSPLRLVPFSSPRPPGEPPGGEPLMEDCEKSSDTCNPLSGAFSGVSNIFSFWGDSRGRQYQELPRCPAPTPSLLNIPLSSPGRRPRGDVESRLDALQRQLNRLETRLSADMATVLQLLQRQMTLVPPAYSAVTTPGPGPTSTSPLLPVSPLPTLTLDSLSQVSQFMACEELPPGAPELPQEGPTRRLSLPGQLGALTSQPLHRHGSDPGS"}, "[11]": {"experiment": "PBK model plasma Cmax estimate (Gastroplus 9.8; levels L1, L2, L3)", "design": "species or system human", "settings": "therapeutic uses"}, "[12]": {"test_system": "Thyroid hormone receptor alpha, THRA (h)", "experiment": "IPP THRA coactivator recruitment (agonist)", "type": "biochemical, human", "settings": "100 uM; agonist; T3; * denotes assay interference (2-Amino-6-chloro-4-nitrophenol, HC Red 3)"}, "[13]": {"settings": "PBK input, level L2; ref [10]; cited from earlier work"}, "[14]": {"test_system": "Potassium Voltage-Gated Channel Kv non-selective, KCNQ1 (r)", "experiment": "IPP KCNQ1 binding (antagonist radioligand)", "design": "species or system rat"}, "HepG2 cells [15]": {"test_system": "HepG2 cells", "experiment": "High-throughput transcriptomics (HTTr, TempO-Seq), HepG2, 24 h", "type": "cell-based, human", "settings": "HepG2", "description": "as §1"}, "mouse": {"test_system": "mouse", "settings": "ref SCCS; cited from earlier work"}, "[16]": {"settings": "human", "remark": "listed apart in the source"}, "[17]": {"target": "T2, Pregnane X receptor PXR, NR1I2 (h) (Homo sapiens, UniProt O75469)", "T2 sequence (O75469 1-434)": "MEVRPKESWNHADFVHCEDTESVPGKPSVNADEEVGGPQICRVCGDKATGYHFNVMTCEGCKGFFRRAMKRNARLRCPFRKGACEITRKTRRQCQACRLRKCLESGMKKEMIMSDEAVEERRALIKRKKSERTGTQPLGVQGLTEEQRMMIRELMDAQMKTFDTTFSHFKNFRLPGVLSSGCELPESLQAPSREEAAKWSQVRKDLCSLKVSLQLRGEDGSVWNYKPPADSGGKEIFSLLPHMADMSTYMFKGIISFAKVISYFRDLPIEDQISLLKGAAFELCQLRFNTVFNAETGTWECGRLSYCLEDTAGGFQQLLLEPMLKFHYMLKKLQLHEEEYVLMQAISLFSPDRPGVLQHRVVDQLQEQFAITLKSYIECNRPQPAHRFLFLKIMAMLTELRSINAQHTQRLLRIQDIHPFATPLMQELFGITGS"}, "[18]": {"target": "T3, Constitutive androstane receptor CAR, NR1I3 (h) (Homo sapiens, UniProt Q14994)", "T3 sequence (Q14994 1-352)": "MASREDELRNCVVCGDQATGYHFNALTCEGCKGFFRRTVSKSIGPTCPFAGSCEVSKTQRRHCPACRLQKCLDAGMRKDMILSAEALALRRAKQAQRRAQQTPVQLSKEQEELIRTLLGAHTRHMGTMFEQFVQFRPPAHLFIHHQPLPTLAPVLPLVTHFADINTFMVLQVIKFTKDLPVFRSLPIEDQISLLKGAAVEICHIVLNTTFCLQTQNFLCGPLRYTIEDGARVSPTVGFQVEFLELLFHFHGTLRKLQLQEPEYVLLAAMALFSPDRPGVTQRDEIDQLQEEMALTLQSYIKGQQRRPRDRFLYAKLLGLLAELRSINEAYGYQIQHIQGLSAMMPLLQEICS", "type": "biochemical"}, "[19]": {"settings": "PO 15 mg, tablet, 8 male, Fasted, calibration, ref Stirling Y, et al. British Journal of Haematology (1982) 51: 37-46"}}, "note": "Where two headings read alike, the source gives them in different places.", "data": [{"molecule": "CC(=O)CC(c1ccccc1)c1c([O-])c2ccccc2oc1=O.[Na+]", "note": "(stereo not shown) [Warfarin, Sodium 2-oxo-3-(3-oxo-1-phenylbutyl)-2H-1-benzopyran-4-olate]", "values": [{"measurement": "Specific binding", "setting": "[1]", "value": -14.2, "unit": "%"}, {"measurement": "Specific binding", "setting": "[2]", "value": 0.7, "unit": "%"}, {"measurement": "Specific binding", "setting": "[3]", "value": -1.9, "unit": "%"}, {"measurement": "IPP screening %, Specific binding", "setting": "Tubulin (r)", "value": 3.0, "unit": "%"}, {"measurement": "HepaRG minimum pathway BMDL", "setting": "HepaRG cells; BMDExpress2, highest of the chemical's PoDs", "value": 259, "unit": "µM"}, {"measurement": "pod_httr_bifrost PoD", "setting": "HepaRG cells; HepaRG, HTTr BIFROST PoD", "value": 13.5544, "unit": "µM"}, {"measurement": "podl_path_minbmd PoD", "setting": "HepaRG cells; HepaRG, HTTr minimum pathway BMD(L)", "value": 258.74, "unit": "µM"}, {"measurement": "HepaRG BIFROST global PoD", "setting": "HepaRG cells; lowest of the chemical's PoDs", "value": 13.6, "unit": "µM"}, {"measurement": "pod_cell_stress PoD", "setting": "HepG2 cells [4]", "value": 13.7726, "unit": "µM"}, {"measurement": "Specific binding", "setting": "[5]", "value": 7.9, "unit": "%"}, {"measurement": "IC50", "setting": "[6]; read-out: IC50 on the VKORC1 enzyme, lower end of literature range", "value": 24.7, "unit": "nM"}, {"measurement": "IC50", "setting": "[6]; read-out: IC50 on the VKORC1 enzyme, upper end of literature range", "value": 4000, "unit": "nM"}, {"measurement": "Reported AUC0-t", "setting": "[7]; [19]", "value": 54300, "unit": "ng·h/mL"}, {"measurement": "Reported cmax", "setting": "[7]; [19]", "value": 1.305, "unit": "µg/mL"}, {"measurement": "Reported tmax", "setting": "[7]; [19]", "value": 1, "unit": "h"}, {"measurement": "Cmax", "setting": "[7]; read-out: typical Cmax reported in the literature, ref literature, not specified", "value": "0.6 to 6", "unit": "µM"}, {"measurement": "Intrinsic Liver Clearance", "setting": "[8]", "value": 14.41, "unit": "L/h"}, {"measurement": "Specific binding", "setting": "[9]", "value": 0.6, "unit": "%"}, {"measurement": "pod_httr_bifrost PoD", "setting": "MCF7 cells; HTTr BIFROST PoD", "value": 19.7041, "unit": "µM"}, {"measurement": "podl_path_minbmd PoD", "setting": "MCF7 cells; HTTr minimum pathway BMD(L)", "value": 167.012, "unit": "µM"}, {"measurement": "IPP screening %, Specific binding", "setting": "[10]; human", "value": 10.1, "unit": "%"}, {"measurement": "underprediction of the L3 result at L2 (Cmax)", "setting": "[11]", "value": "≥ 5", "unit": "fold"}, {"measurement": "IPP screening %, Coactivator recruitment", "setting": "[12]", "value": -2.0, "unit": "%"}, {"measurement": "Fup", "setting": "[13]", "value": 2, "unit": "%"}, {"measurement": "Specific binding", "setting": "[14]", "value": 7.0, "unit": "%"}, {"measurement": "pod_httr_bifrost PoD", "setting": "HepG2 cells [15]; HTTr BIFROST PoD", "value": 14.2833, "unit": "µM"}, {"measurement": "podl_path_minbmd PoD", "setting": "HepG2 cells [15]; HTTr minimum pathway BMD(L)", "value": 164.109, "unit": "µM"}]}, {"molecule": "Nc1ccc(NCCO)c([N+](=O)[O-])c1", "note": "[HC Red 3, 2-(4-Amino-2-nitroanilino)ethan-1-ol]", "values": [{"measurement": "Specific binding", "setting": "[1]", "value": 18.0, "unit": "%"}, {"measurement": "Specific binding", "setting": "[2]", "value": 38.7, "unit": "%"}, {"measurement": "NOAEL before adjustment for 5 day dosing regimen", "setting": "mouse", "value": "NOAEL of 125 mkd adjusted for 5 day dosing regimen. 90 mkd used as critical PoD by SCCS"}, {"measurement": "IPP screening %, Specific binding", "setting": "Tubulin (r)", "value": -13.0, "unit": "%"}, {"measurement": "risk", "setting": "[16]", "value": 0}, {"measurement": "pod_cell_stress PoD", "setting": "HepG2 cells [4]", "value": 1.583, "unit": "µM"}, {"measurement": "Specific binding", "setting": "[5]", "value": 0.4, "unit": "%"}, {"measurement": "Specific binding", "setting": "[9]", "value": 16.3, "unit": "%"}, {"measurement": "IPP screening %, Specific binding", "setting": "[10]; 100 uM, [3H] Dofetilide, control Terfenadine", "value": 16.3, "unit": "%"}, {"measurement": "IPP Dose Response PoD: PXR antagonist", "setting": "[17]", "value": "[4.11, 6.71]"}, {"measurement": "IPP screening %, Coactivator recruitment", "setting": "[12]", "value": "628.0* %"}, {"measurement": "IPP Dose Response PoD: CAR antagonist effect", "setting": "[18]", "value": "[29.7,46.9]"}, {"measurement": "Specific binding", "setting": "[14]; IPP screening at 100 uM, control α-dendrotoxin", "value": -2.7, "unit": "%"}]}]}
